The results in this text go back to patent US11731955B2, “Crystal habit of quinoline derivative and preparation method for crystalline powder thereof” (CHIA TAI TIANQING PHARMACEUTICAL GROUP CO., LTD, priority 2018, dated 2023).

Counter-ions that a name gives are not always drawn.

Format in all cases: physicochemical
Data set [1] is described as follows: Determination of solubility (saturation concentration). The following applies: for solubility thermodynamic at 24 h: aqueous buffer, thermodynamic from solid, shaker at 37° C. As to the method: 14.16 mg of the crystalline powder of the compound of the formula II acquired in Example 1 was dissolved, shaken overnight (24 hours) on a shaker at 37° C. and cooled to room temperature. The saturation concentration was measured using the supernatant. As a result, the saturation concentrations in the phosphoric acid solutions at pH 6.8 and 7.0 for 24 hours were 0.8 and 0.3 μg/mL, respectively.

Data set [2] in a line: Specific surface area by multipoint BET measurement. The following applies: for A (specific surface area): pulverized powders, dihydrochloride. On the procedure: In the present application, the specific surface area A used herein refers to the total area per unit mass (m^2/g), as determined by multipoint BET specific surface area measurement.
The specific surface area was determined by multipoint BET specific surface area measurement, in which the absolute adsorption quantity of nitrogen in a sample was measured under different partial pressures, and the single-layer adsorption quantity was calculated by the BET theory, thus giving the specific surface area.

The nature of data set [3]: Particle-size distribution by laser particle size analyzer. The following applies: laser particle-size distribution of pulverized powders; dihydrochloride. From the text: “X10” as used herein refers to the particle size for 10% of the particles in the particle size distribution, i.e., the fraction of particles smaller than this particle size accounts for 10% of all particles; “X50” refers to the particle size for 50% of the particles in the particle size distribution, i.e., the fraction of particles smaller than this particle size accounts for 50% of all particles; “X90” refers to a particle size for 90% of the particles in the particle size distribution, i.e., the fraction of particles smaller than this particle size accounts for 90% of all particles.
The particle-size distribution of the materials was determined by laser. Instrument: fully automatic dry and wet two-in-one laser particle size analyzer, VIBRI (HELOSBR).

A short description of data set [4]: Dissolution properties of powders by basket method. The following applies: 100 rpm, dihydrochloride; for Cumulative dissolution % (0.1 mol/L hydrochloric acid): 1000 mL. On the procedure: The dissolution properties of powders 1 and 2 in 1000 mL of 0.1 mol/L aqueous hydrochloric acid solution and a standard medium of 10 mM phosphate buffer containing 0.075% SDS, pH 6.8 were measured by basket method at 100 rpm and compared.

`COc1cc2c(Oc3ccc4[nH]c(C)cc4c3F)ccnc2cc1OCC1(N)CC1` [Example 1, Anlotinib dihydrochloride]: the “Biopharmaceutical Classification System (BCS) solubility classification” value in data set [1] was “low solubility”. Besides, the solubility (thermodynamic) at 24 h in data set [1] (phosphoric acid solution pH 6.8, 24 hours) was determined as 0.8 µg/mL; in data set [1] (phosphoric acid solution pH 7.0, 24 hours), 0.3 µg/mL.
Regarding `COc1cc2c(Oc3ccc4[nH]c(C)cc4c3F)ccnc2cc1OCC1(N)CC1` [Powder 1, Anlotinib dihydrochloride], in data set [2], the “A (specific surface area)” value turned out to be 11.09 ± 0.04 m^2/g. Moreover, in data set [3], the X50 is 3.96 μm and the X90 is recorded as 64.89 μm. Besides, in data set [4] (3 min), the “Cumulative dissolution % (10 mM phosphate buffer containing 0.075% SDS, pH 6.8)” value is listed as 77.4% and the “Cumulative dissolution % (0.1 mol/L hydrochloric acid)” value worked out at 89.6%. Further, in data set [4] (5 min), the “Cumulative dissolution % (10 mM phosphate buffer containing 0.075% SDS, pH 6.8)” value is on record as 90.2% and the “Cumulative dissolution % (0.1 mol/L hydrochloric acid)” value was determined as 94.2%.
On to `COc1cc2c(Oc3ccc4[nH]c(C)cc4c3F)ccnc2cc1OCC1(N)CC1` [Powder 2, Anlotinib dihydrochloride], for which, in data set [2], the “A (specific surface area)” value turned out to be 13.07 ± 0.05 m^2/g. In data set [3], this molecule returned an X50 of 2.66 μm and an X90 of 14.01 μm. Further, in data set [4] (3 min), the “Cumulative dissolution % (10 mM phosphate buffer containing 0.075% SDS, pH 6.8)” value is on record as 80.1% and the “Cumulative dissolution % (0.1 mol/L hydrochloric acid)” value was 93.7%. In data set [4] (5 min), the “Cumulative dissolution % (10 mM phosphate buffer containing 0.075% SDS, pH 6.8)” value is listed as 86.4% and the “Cumulative dissolution % (0.1 mol/L hydrochloric acid)” value amounted to 95.8%.
In turn, `COc1cc2c(Oc3ccc4[nH]c(C)cc4c3F)ccnc2cc1OCC1(N)CC1` [Anlotinib dihydrochloride, reference compound] registered a specific surface area in data set [2] (bulk crystal recrystallized in ethanol (Comparative Example 1)) of 3.4750 m^2/g.

The solubility (thermodynamic) is solubility found after equilibrating the solid with the medium.
